Laboratory results from patent US9572786B2, “Use of capsiate or dihydrocapsidate” (Catholic University Industry Academy Cooperation Foundation, priority 2007, dated 2017).

Key:
JNK = assay: MAPK signaling after UV, Western blotting: JNK; format: cell-based, human; details: HaCaT cells; 10, 25, 50 μM; 30 minutes after UV irradiation
Experimental: Western blotting was performed in the same manner as in Example 2-1 in order to identify the factor that affects the COX-2 expression regulated by capsiate, except for treating the cells with capsiate at different concentrations (10 μM, 25 μM and 50 μM) prior to UV irradiation, and using rabbit anti-ERK antibody, rabbit anti-p-ERK antibody, rabbit anti-p38 antibody, rabbit anti-p-p38 antibody, rabbit anti-JNK antibody and rabbit anti-p-JNK antibody (cell signaling), and anti-rabbit IgG-HRP conjugation antibody (Zymed) as the secondary antibody, 30 minutes after UV irradiation.

hairless mouse (SKH-1) = assay: UV-induced skin damage in hairless mouse (observation, hematoxylin-eosin staining); format: in vivo; details: 200 μL of 1 mM in acetone topically every 24 hours, UV 2.5 kJ/m^2 4 times
Experimental: (§1) In order to confirm the in vitro experiment result performed on the human keratinocyte HaCaT cells in an animal model, experiment was carried out as follows using hairless mouse (SKH-1). Test groups were as follows: non-treated group—treated with acetone only without UV irradiation; test group A—treated with 200 μL of 1 mM capsiate dissolved in acetone every 24 hours without UV irradiation; control group—treated with UV and acetone; test group B—treated with UV and 200 μL of 1 mM capsiate dissolved in acetone every 24 hours (Unspecified conditions are the same as in Examples 5-7.).
(§2) Capsiate was applied on the back of the mouse. 1 hour later, UV was irradiated at an intensity of 2.5 kJ/m^2. 1 hour later, capsiate was applied again at the same concentration in order to prevent rash which may occur immediately after UV irradiation. Thereafter, capsiate was applied every 24 hours and UV irradiation was carried out every other day at an intensity of 2.5 kJ/m^2 for 4 times. In order to investigate the change of tissue and intracellular mechanism (signaling), the mouse was euthanized 1 hour after the final UV irradiation. Skin tissue was taken from the back of the mouse and subjected to skin biopsy following observation.
Hematoxylin-eosin staining was carried out in order to investigate the overall change in the skin tissue.

COX-2 = assay: UV-induced COX-2 expression in mouse skin tissue, immunohistochemical staining; format: in vivo; details: hairless mouse; 200 μL of 1 mM topically; 4 times of UV irradiation
Experimental: as §1, §2
In order to reconfirm this effect, immunohistochemical staining was carried out as follows. […]

ERK = assay: MAPK signaling in mouse skin tissue, Western blotting: ERK; format: in vivo; details: hairless mouse; UV+CPT vs UV with acetone only
Experimental: In order to investigate the intracellular mechanism (signaling) related with the inhibition of COX-2 expression by capsiate, Western blotting was carried out for MAPK signaling-related proteins (ERK, p-ERK, p38, p-p38 and JNK, p-JNK) as in Example 2-2, using proteins isolated from the mouse skin tissue.

ICAM-1 (CD54) = assay: ICAM-1 expression in mouse skin, Western blotting; format: in vivo; details: mouse skin tissue; test group B
Experimental: (§3) In order to investigate the effect of capsiate on various intracellular angiogenesis-related expression factors, the inhibition effect of capsiate on angiogenesis factors induced by UV was evaluated using the mouse tissue of Example 5.
Western blotting was carried out in the same manner as Example 6 using the proteins isolated from the mouse skin tissue of each test group in Example 6, in order to investigate the level of expression of ICAM-1 (CD54), which is involved in cell infiltration, cell migration, angiogenesis, etc. in inflammatory response. In order to investigate the level of ICAM-1 expression, mouse anti-ICAM-1 antibody (Santa Cruz, USA) and HRP-conjugated secondary antibody (1:10,000, Zymed) were used.

VEGF = VEGF expression in mouse skin, Western blotting; format: in vivo; details: treated prior to UV irradiation
Experimental: as §3
Western blotting was carried out in the same manner as Example 6 using the proteins isolated from the mouse skin tissue of each test group in Example 6, in order to investigate of capsiate on VEGF, which plays an important role in angiogenesis. In order to investigate the level of VEGF expression, VEGF antibody (Santa Cruz, USA) and HRP-conjugated secondary antibody (1:10,000, Zymed) were used.

T cells = assay: Proliferation of T cells, thymidine (H3) incorporation; format: cell-based, C57/BL6 mouse; details: mouse spleen T cells; 25 uM; vs control group
Experimental: T cells were isolated from mouse spleen in order to investigate the effect of capsiate on the proliferation of T cells. Specifically, the spleen of C57/BL6 mouse was taken out and pulverized as single cells. After lysing red blood cells using an RBC lysis buffer (Sigma, USA), other cells were washed 3 times using cell culture medium (RPMI 1640 complete medium). The cell culture medium is prepared by adding 10% FBS, 10 mM HEPES, 100 μg/mL penicillin, 100 μg/mL streptomycin, 2 mM L-glutamine, 1 mM sodium pyruvate and 50 uM 2-mercaptoethanol. From the cells, only the T cells were separated using a T cell enrichment column (R&D, USA).
5×10^5 of the isolated T cells were placed on a 96-well plate and capsiate was treated at a concentration of 25 uM. Proliferation of T cells was induced by adding 0.1 μg/mL α-CD3a and 2 μg/mL α-CD28, or 1 μg/mL α-CD3a and 2 μg/mL α-CD28. The degree of cell proliferation was compared to that of the control group which was not treated with capsiate. Specifically, after culturing the T cells for 24 hours, thymidine (H3) was added at a concentration of 1 uCi per well and the T cells were harvested 16 hours later using a membrane filter (Skatron, England) and a cell harvester. The harvested T cells were lysed in LSC cocktail solution (Ultima Gold, PerkinElmer, USA) and H3's CPM value was measured using a beta counter (Packard, USA).

COc1cc(COC(=O)CCCC/C=C/C(C)C)ccc1O [capsiate]
JNK (phosphorylation) (JNK): no particular change | blood vessels and edema (hematoxylin-eosin staining) (hairless mouse (SKH-1)): also decreased | hyperplasia in the epidermis (hematoxylin-eosin staining) (hairless mouse (SKH-1)): decreased remarkably | blood vessel thickness and blood in back skin tissue (hairless mouse (SKH-1); vs UV control): less blood vessel thickness and less blood | size and depth of wound induced by UV irradiation (hairless mouse (SKH-1); vs UV control): less severe | UV-induced increase of COX-2 in mouse skin tissue (immunohistochemical staining) (COX-2): effectively inhibited | ERK phosphorylation in mouse skin tissue (ERK): suppressed phosphorylation | level of ICAM-1 expression increased by UV irradiation (ICAM-1 (CD54)): decreased | level of VEGF expression in the mouse skin tissue (VEGF): decreased | proliferation of T cells induced by α-CD3a and α-CD28 (T cells): significant inhibition
